Assay type in all cases: cell-based, Escherichia coli
Experiment [1] has as its system APEC O78. The experiment in a line: Primary screening, growth inhibition of APEC O78. Particulars: separate experiment, DMSO 1% to 32%, M63 media, 12 h. As to the method:
To identify the APEC growth inhibitors, SM library was screened against APEC O78 which is one of the most frequently isolated APEC serotypes from avian colibacillosis cases. One microlitre SMs (final concentration of 100 µM) were added using a slotted pin tool (V and P Scientific, San Diego, CA, USA) to the wells of the 96-well plate containing 100 µL of overnight grown 0.05 OD600 (7 × 10^7 CFU/mL) adjusted APEC culture. Controls (four replicates/plate) containing 1 µL of 100% DMSO (final concentration of 1%), 1 µL chloramphenicol (CHL, #C0378 Sigma-Aldrich) (20 µg/mL), 1 µL kanamycin (KAN, #60615 Sigma-Aldrich) (50 µg/mL), and 100 µL of M63 media were included. To determine the effect of DMSO on APEC growth, antimicrobial activity of DMSO was determined at different concentrations (1% to 32%) in a separate experiment. Plate was then incubated at 37 °C for 12 h in Sunrise - Absorbance microplate reader (Tecan Group Ltd. San Jose, CA) with kinetic OD600 measurement every 30 mins. The quality of screening was assessed by calculating the Z′-score as described previously. The growth inhibition of APEC was calculated by using the formula as previously described[13],[14]. The SMs inhibiting at least 80% of the APEC growth were selected as primary hits. […]

The subject of a further experiment is APEC O1-63. Briefly: Antimicrobial susceptibility, CAMHB micro-dilution (CLSI). Particulars: APEC O1-63, CAMHB, (R) = resistant. An excerpt:
(§1) Initially, antimicrobial susceptibility profile was established for all the tested APEC serotypes using cation-adjusted Muller-Hinton broth (CAMHB) micro-dilution method according to clinical and laboratory standards institute (CLSI) guidelines.

The next experiment deals with APEC O109. The experiment is described as above. Particulars: (R) = resistant.
Description: as §1

In another experiment the test system is APEC O115. The description is as above. As to conditions: (R) = resistant.
Description: as §1

Another experiment concerns APEC O15. The experiment is described as above. As to conditions: (R) = resistant.
Description: as §1

For another experiment, the system named is APEC O18. Described as above. Particulars: (R) = resistant.
Description: as §1

A further experiment deals with APEC O1. Described as above. As to conditions: (R) = resistant.
Description: as §1

The test system of another experiment is APEC O2-211. Described as above. As to conditions: APEC O2-211, CAMHB, (R) = resistant.
Description: as §1

A further experiment has as its system APEC O2. The experiment is described as above. Particulars: (R) = resistant.
Description: as §1

The next experiment relates to APEC O35. The experiment is described as above. As to conditions: (R) = resistant.
Description: as §1

The subject of the next experiment is APEC O78-53. The experiment is described as above. As to conditions: APEC O78-53, CAMHB, (R) = resistant.
Description: as §1

Experiment [2] deals with APEC O78. Described as above. Particulars: (R) = resistant.
Description: as §1

A further experiment concerns APEC O8. The description is as above. As to conditions: (R) = resistant.
Description: as §1

In another experiment the test system is E. coli ATCC 25922. The experiment in a line: Antimicrobial susceptibility, quality control strain (CLSI). Particulars: E. coli ATCC 25922 quality control strain, CAMHB.
Description: as §1

The subject of experiment [3] is APEC O78. Briefly: Crystal violet (CV) uptake assay. Particulars: 2X MBC, 30 mins; P < 0.05, Student's t-test. The procedure: (§2) Membrane permeability assays (crystal violet (CV) uptake and loss of 260/280 nm absorbing materials) were conducted as described previously. […] CV uptake was measured using the formula: (OD DMSO − OD SM/OD DMSO × 100). Two independent experiments in duplicates were conducted.

Experiment [4] concerns APEC O78. The experiment in a line: Loss of 260/280 nm absorbing materials assay. Particulars: 2X MBC, 1 h. The procedure:
as §2

[5] abbreviates: Escherichia coli, read-out: MIC.
Setting [6] is: Escherichia coli, ATCC25922, read-out: MIC.

Values after ≈ are worked out from the molar mass of the structure shown. Where two headings read alike, the source gives them in different places. Marks after values point to notes of the source that are not given here.

Take `C[S+](C)[O-]` [DMSO, dimethyl sulfoxide]: in the experiment with APEC O78 [1], the “DMSO concentration inhibitory to APEC” value is on record as at least 8%.
In general, MIC refers to the smallest concentration in the dilution series that meets the test's criterion for growth inhibition. For `CC1(C)S[C@@H]2[C@H](NC(=O)[C@H](N)c3ccccc3)C(=O)N2[C@H]1C(=O)O` [Ampicillin, ampicillin], the minimal inhibitory concentration (MIC) in the experiment on APEC O1-63 (setting [5]) is 4 µg/mL (≈ 11.4 µM); with APEC O109 (setting [5]), over 64 µg/mL; with APEC O115 (setting [5]), over 64 µg/mL; with APEC O15 (setting [5]) it was 2 µg/mL (≈ 5.72 µM); with APEC O18 (setting [5]), 4 µg/mL (≈ 11.4 µM); in the experiment on APEC O1 (setting [5]) it was over 64 µg/mL. The MIC was 4 µg/mL (≈ 11.4 µM) in the experiment on APEC O2-211 (setting [5]); over 64 µg/mL in the experiment on APEC O2 (setting [5]); 2 µg/mL (≈ 5.72 µM) in the experiment with APEC O35 (setting [5]); 4 µg/mL (≈ 11.4 µM) with APEC O78-53 (setting [5]); over 64 µg/mL in the experiment with APEC O78 [2] (setting [5]); 4 µg/mL (≈ 11.4 µM) in the experiment with APEC O8 (setting [5]). The minimum inhibitory concentration (MIC) in the experiment on E. coli ATCC 25922 (setting [6]) amounted to 8 µg/mL (≈ 22.9 µM).
Regarding colistin, the MIC with APEC O1-63 is given as 4 µg/mL; in the experiment on APEC O109, 0.5 µg/mL; against APEC O115, 1 µg/mL; with APEC O15, 1 µg/mL; with APEC O18, 1 µg/mL; in the experiment on APEC O1 it was 0.5 µg/mL. Moreover, the MIC was found to be 4 µg/mL in the experiment with APEC O2-211; 0.5 µg/mL in the experiment on APEC O2; 1 µg/mL in the experiment with APEC O35; 0.5 µg/mL against APEC O78-53; 0.25 µg/mL against APEC O78 [2]; 1 µg/mL in the experiment with APEC O8. The minimum inhibitory concentration (MIC) with E. coli ATCC 25922 turned out to be 1 µg/mL.
For `O=C(O)CN(CCN(CC(=O)O)CC(=O)O)CC(=O)O` [EDTA, ethylenediaminetetraacteic acid, reference compound], in the experiment with APEC O78 [3], the “uptake of crystal violet compared with DMSO” value is reported as “increased the uptake of crystal violet”. For the same compound, in the experiment with APEC O78 [4], the “260 nm absorbing materials in supernatant compared with DMSO” value was “significantly (P < 0.05, Student’s t-test) increased”. Besides, the “Absorbance 280 nm of treated supernatant” value in the experiment with APEC O78 [4] (DMSO 2.58, superscript a P < 0.05 vs DMSO) was found to be 2.60. Besides, in the experiment with APEC O78 [4] (DMSO 3.77, superscript a P < 0.05 vs DMSO), the “Absorbance 260 nm of treated supernatant” value is listed as 4.00^a.
Consider `CN(C)[C@@H]1C(O)=C(C(N)=O)C(=O)[C@@]2(O)C(O)=C3C(=O)c4c(O)cccc4[C@@](C)(O)[C@H]3C[C@@H]12` [Tetracycline, tetracycline], for which the minimum inhibitory concentration (MIC) with APEC O1-63 (setting [5]) is 16 µg/mL (≈ 36 µM); in the experiment on APEC O109 (setting [5]), 1 µg/mL (≈ 2.25 µM); in the experiment on APEC O115 (setting [5]), over 64 µg/mL; in the experiment on APEC O15 (setting [5]) it was over 64 µg/mL; in the experiment with APEC O18 (setting [5]) it was 2 µg/mL (≈ 4.5 µM); in the experiment with APEC O1 (setting [5]), over 64 µg/mL. The minimum inhibitory concentration (MIC) in the experiment on APEC O2-211 (setting [5]) was over 64 µg/mL; with APEC O2 (setting [5]), over 64 µg/mL; in the experiment with APEC O35 (setting [5]) it was 1 µg/mL (≈ 2.25 µM); in the experiment on APEC O78-53 (setting [5]), over 64 µg/mL; in the experiment on APEC O78 [2] (setting [5]), 32 µg/mL (≈ 72 µM); in the experiment on APEC O8 (setting [5]), over 64 µg/mL. Further, the minimal inhibitory concentration (MIC) with E. coli ATCC 25922 (setting [6]) turned out to be 0.5 µg/mL (≈ 1.13 µM).

These data come from PMC6193035, “Novel small molecules affecting cell membrane as potential therapeutics for avian pathogenic Escherichia coli” (Scientific Reports, 2018).
